Measured values taken from patent publication US20150239889A1, “PYRAZOLOPYRIMIDINE COMPOUND” (MITSUBISHI TANABE PHARMA CORPORATION, priority 2012, published 2015).
pIC50: −log10 of the molar value.

Assays:
human HIF-PHD2 = target: T1, human HIF-PHD2 (Homo sapiens, UniProt Q9GZT9); experiment: HIF-PHD inhibition assay (fluorescence polarization), human HIF-PHD2; type: biochemical; settings: 2-oxoglutaric acid 3.33 μmol/L
T1 construct: purchased CrystalGenomics Ltd
In short: (§1)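 Compounds tested for enzyme inhibition by fluorescence polarization. Subtracting the reading taken before enzyme addition from the post-addition reading gave activity in mP.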

human HIF-PHD3 = target: T2, human HIF-PHD3 (Homo sapiens, UniProt Q9H6Z9); experiment: HIF-PHD inhibition assay (fluorescence polarization), human HIF-PHD3; type: biochemical; settings: 2-oxoglutaric acid 166 μmol/L
T2 construct: purchased CrystalGenomics Ltd
T2 sequence (Q9H6Z9 whole entry): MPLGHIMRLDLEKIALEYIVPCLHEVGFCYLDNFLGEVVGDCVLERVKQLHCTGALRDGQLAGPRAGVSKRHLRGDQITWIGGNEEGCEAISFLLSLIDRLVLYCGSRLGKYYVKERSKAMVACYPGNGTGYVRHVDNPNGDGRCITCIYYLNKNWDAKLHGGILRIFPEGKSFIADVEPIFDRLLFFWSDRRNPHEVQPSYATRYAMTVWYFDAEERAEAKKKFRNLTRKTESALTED
In short: as §1

T1 sequence (Q9GZT9 2-426 limits assumed): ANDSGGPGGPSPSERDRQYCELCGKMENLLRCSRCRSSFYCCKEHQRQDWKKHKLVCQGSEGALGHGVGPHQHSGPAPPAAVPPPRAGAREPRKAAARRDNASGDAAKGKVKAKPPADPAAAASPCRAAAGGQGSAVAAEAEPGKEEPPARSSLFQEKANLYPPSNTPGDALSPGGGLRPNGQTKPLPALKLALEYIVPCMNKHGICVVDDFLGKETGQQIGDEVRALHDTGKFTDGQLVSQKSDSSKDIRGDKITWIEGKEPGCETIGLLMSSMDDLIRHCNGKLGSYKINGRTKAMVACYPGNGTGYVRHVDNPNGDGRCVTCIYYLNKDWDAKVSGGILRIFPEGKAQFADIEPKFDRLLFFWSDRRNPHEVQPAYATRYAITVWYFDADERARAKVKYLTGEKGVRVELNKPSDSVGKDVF

Row | pIC50 (human HIF-PHD2) | pIC50 (human HIF-PHD3) | SMILES
1 | 7.42 | 6.08 | CC1(C)CCC(n2ncc3nc(-n4cc(C(=O)O)cn4)nc(O)c32)CC1 [Example 386]
2 | 7.52 | 6.11 | CC1(C)CC(n2ncc3nc(-n4cc(C(=O)O)cn4)nc(O)c32)CC(C)(C)C1 [Example 387]
3 | 7.33 | 6.29 | CC[C@H]1CC[C@H](n2ncc3nc(-n4cc(C(=O)O)cn4)nc(O)c32)CC1 [Example 388]
4 | 7.12 | 6.10 | CC(C)[C@H]1CC[C@H](n2ncc3nc(-n4cc(C(=O)O)cn4)nc(O)c32)CC1 [Example 389]
5 | 7.55 | 6.18 | CC(C)[C@H]1CC[C@@H](n2ncc3nc(-n4cc(C(=O)O)cn4)nc(O)c32)CC1 [Example 390]
6 | 7.14 | 5.96 | CC(C)(C)[C@H]1CC[C@@H](n2ncc3nc(-n4cc(C(=O)O)cn4)nc(O)c32)CC1 [Example 391]
7 | 7.38 | 5.89 | O=C(O)c1cnn(-c2nc(O)c3c(cnn3C3CCC(F)(F)CC3)n2)c1 [Example 392]
8 | 7.39 | 6.51 | O=C(O)c1cnn(-c2nc(O)c3c(cnn3C3CCCCCC3)n2)c1 [Example 393]
9 | 7.48 | 6.38 | O=C(O)c1cnn(-c2nc(O)c3c(cnn3C3CCCCCCC3)n2)c1 [Example 394]
10 | 7.19 | 6.37 | O=C(O)c1cnn(-c2nc(O)c3c(cnn3C3Cc4ccccc4C3)n2)c1 [Example 395]
11 | 7.33 | 6.47 | O=C(O)c1cnn(-c2nc(O)c3c(cnn3[C@@H]3CCc4ccccc43)n2)c1 [Example 396]
12 | 7.34 | 6.14 | O=C(O)c1cnn(-c2nc(O)c3c(cnn3[C@H]3CCc4ccccc43)n2)c1 [Example 397]
13 | 7.28 | 5.85 | CC1CCCC(n2ncc3nc(-n4cc(C(=O)O)cn4)nc(O)c32)C1 (stereo not shown) [Example 398]
14 | 7.64 | 6.22 | CC1CCCC(n2ncc3nc(-n4cc(C(=O)O)cn4)nc(O)c32)C1 (stereo not shown) [Example 400]
15 | 7.62 | 6.15 | C[C@@H]1C[C@H](C)C[C@@H](n2ncc3nc(-n4cc(C(=O)O)cn4)nc(O)c32)C1 [Example 402]
16 | 6.85 | 6.03 | CC(C)[C@@H]1CC[C@@H](C)C[C@@H]1n1ncc2nc(-n3cc(C(=O)O)cn3)nc(O)c21 [Example 403]
17 | 7.09 | 6.08 | CC(C)[C@H]1CC[C@H](C)C[C@H]1n1ncc2nc(-n3cc(C(=O)O)cn3)nc(O)c21 [Example 404]
18 | 6.96 | 6.34 | CC(C)[C@H]1CC[C@H](C)[C@H](n2ncc3nc(-n4cc(C(=O)O)cn4)nc(O)c32)C1 [Example 405]
19 | 6.77 | 6.17 | CC(C)[C@@H]1CC[C@@H](C)[C@@H](n2ncc3nc(-n4cc(C(=O)O)cn4)nc(O)c32)C1 [Example 406]
20 | 7.43 | 6.34 | CC1CC(n2ncc3nc(-n4cc(C(=O)O)cn4)nc(O)c32)CC(C)(C)C1 (stereo not shown) [Example 407]
21 | 7.31 | 6.38 | CC1CC(n2ncc3nc(-n4cc(C(=O)O)cn4)nc(O)c32)CC(C)(C)C1 (stereo not shown) [Example 409]
22 | 7.40 | 6.26 | CC1(C)CCCC(n2ncc3nc(-n4cc(C(=O)O)cn4)nc(O)c32)C1 (stereo not shown) [Example 411]
23 | 7.38 | 6.17 | CCC1CCCC(n2ncc3nc(-n4cc(C(=O)O)cn4)nc(O)c32)C1 (stereo not shown) [Example 413]
24 | 7.40 | 6.16 | CCC1CCCC(n2ncc3nc(-n4cc(C(=O)O)cn4)nc(O)c32)C1 (stereo not shown) [Example 415]

Row | pIC50 (human HIF-PHD2) | pIC50 (human HIF-PHD3) | SMILES
25 | 7.15 | 5.89 | CC1(C)CCCC1n1ncc2nc(-n3cc(C(=O)O)cn3)nc(O)c21 (stereo not shown) [Example 417]
26 | 7.21 | 6.31 | CC1(C)CC(=O)N(c2ccc(Cn3ncc4nc(-n5cc(C(=O)O)cn5)nc(O)c43)cc2)C1 [Example 420]
27 | 7.42 | 6.38 | O=C(O)c1cnn(-c2nc(O)c3c(cnn3Cc3ccc(N4CCC(C(F)(F)F)CC4)cc3)n2)c1 [Example 422]
28 | 7.82 | 6.85 | O=C(O)c1cnn(-c2nc(O)c3c(cnn3C[C@@H]3CCN(c4ccc(C(F)(F)F)cc4)C3)n2)c1 [Example 426]
29 | 7.60 | 6.51 | O=C(O)c1cnn(-c2nc(O)c3c(cnn3C[C@H]3CCN(c4ccc(C(F)(F)F)cc4)C3)n2)c1 [Example 427]
30 | 7.68 | 6.64 | O=C(O)c1cnn(-c2nc(O)c3c(cnn3C[C@H]3CCN(c4ccc(Cl)cc4)C3)n2)c1 [Example 428]
31 | 7.66 | 6.27 | O=C(O)c1cnn(-c2nc(O)c3c(cnn3C[C@H]3CCN(c4cccc(C(F)(F)F)c4)C3)n2)c1 [Example 429]
32 | 7.72 | 6.62 | O=C(O)c1cnn(-c2nc(O)c3c(cnn3C[C@H]3CCN(c4cccc(Cl)c4)C3)n2)c1 [Example 430]
33 | 7.77 | 6.55 | C[C@@H](C1CCN(c2ccc(C(F)(F)F)cc2)CC1)n1ncc2nc(-n3cc(C(=O)O)cn3)nc(O)c21 [Example 431]
34 | 7.77 | 6.57 | C[C@@H](C1CCN(c2ccc(Cl)cc2)CC1)n1ncc2nc(-n3cc(C(=O)O)cn3)nc(O)c21 [Example 432]
35 | 7.51 | 6.27 | C[C@@H](C1CCN(c2ccc(OC(F)(F)F)cc2)CC1)n1ncc2nc(-n3cc(C(=O)O)cn3)nc(O)c21 [Example 433]
36 | 7.55 | 6.38 | C[C@@H](C1CCN(c2cccc(C(F)(F)F)c2)CC1)n1ncc2nc(-n3cc(C(=O)O)cn3)nc(O)c21 [Example 434]
37 | 7.82 | 6.77 | C[C@@H](C1CCN(c2cccc(Cl)c2)CC1)n1ncc2nc(-n3cc(C(=O)O)cn3)nc(O)c21 [Example 435]
38 | 8.00 | 6.48 | O=C(O)c1cnn(-c2nc(O)c3c(cnn3C3CCN(c4ccc(C(F)(F)F)cc4)CC3)n2)c1 [Example 436]
39 | 8.60 | 6.74 | O=C(O)c1cnn(-c2nc(O)c3c(cnn3[C@H]3CCN(c4ccc(C(F)(F)F)cc4)C3)n2)c1 [Example 437]
40 | 7.89 | 6.85 | O=C(O)c1cnn(-c2nc(O)c3c(cnn3[C@H]3CCN(c4ccc(Cl)c(Cl)c4)C3)n2)c1 [Example 438]
41 | 7.22 | 6.37 | Cc1ccc([C@H](C)n2nc(F)c3nc(-n4cc(C(=O)O)cn4)nc(O)c32)cc1C [Example 441]
42 | 7.70 | 6.40 | Cc1nn(Cc2ccc3ccccc3c2)c2c(O)nc(-n3cc(C(=O)O)cn3)nc12 [Example 445]
43 | 7.21 | 5.72 | Cc1nn([C@@H](C)c2ccc(F)cc2)c2c(O)nc(-n3cc(C(=O)O)cn3)nc12 [Example 448]
44 | < 6.52 | 5.92 | Cc1nn([C@@H](C)c2cccc(F)c2)c2c(O)nc(-n3cc(C(=O)O)cn3)nc12 [Example 449]
45 | 7.19 | 6.24 | Cc1nn([C@@H](C)c2ccc(F)c(F)c2)c2c(O)nc(-n3cc(C(=O)O)cn3)nc12 [Example 450]
46 | 7.04 | 6.08 | Cc1nn([C@@H](C)c2ccc(F)cc2F)c2c(O)nc(-n3cc(C(=O)O)cn3)nc12 [Example 451]
47 | 6.96 | 5.80 | Cc1nn([C@@H](C)c2ccc(F)cc2Cl)c2c(O)nc(-n3cc(C(=O)O)cn3)nc12 [Example 452]
